Target: T1, human PAD4 (Homo sapiens, UniProt Q9UM07)
T1 construct: human PAD4 (NM_012387), A2-P663, was PCR amplified; His-SUMO (N, cleaved yes); made in house; host or cells: E. coli BL21(DE3)
Test: In vitro PAD4 BAEE biochemical assay
Conditions: BAEE substrate 3 mM, 5 nM PAD4, 2 mM calcium chloride; geometric mean of multiple experiments
Outline: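 Assay was run at 25 °C using 3 mM BAEE and 5 nM human PAD4 after a 30 min compound preincubation; ammonia produced over 2 h was quantified by OPA-derived fluorescence. Full inhibition was defined by 50 µM BB-Cl-Amidine, and IC50 came from variable-slope nonlinear regression.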

T1 sequence (Q9UM07 2-663): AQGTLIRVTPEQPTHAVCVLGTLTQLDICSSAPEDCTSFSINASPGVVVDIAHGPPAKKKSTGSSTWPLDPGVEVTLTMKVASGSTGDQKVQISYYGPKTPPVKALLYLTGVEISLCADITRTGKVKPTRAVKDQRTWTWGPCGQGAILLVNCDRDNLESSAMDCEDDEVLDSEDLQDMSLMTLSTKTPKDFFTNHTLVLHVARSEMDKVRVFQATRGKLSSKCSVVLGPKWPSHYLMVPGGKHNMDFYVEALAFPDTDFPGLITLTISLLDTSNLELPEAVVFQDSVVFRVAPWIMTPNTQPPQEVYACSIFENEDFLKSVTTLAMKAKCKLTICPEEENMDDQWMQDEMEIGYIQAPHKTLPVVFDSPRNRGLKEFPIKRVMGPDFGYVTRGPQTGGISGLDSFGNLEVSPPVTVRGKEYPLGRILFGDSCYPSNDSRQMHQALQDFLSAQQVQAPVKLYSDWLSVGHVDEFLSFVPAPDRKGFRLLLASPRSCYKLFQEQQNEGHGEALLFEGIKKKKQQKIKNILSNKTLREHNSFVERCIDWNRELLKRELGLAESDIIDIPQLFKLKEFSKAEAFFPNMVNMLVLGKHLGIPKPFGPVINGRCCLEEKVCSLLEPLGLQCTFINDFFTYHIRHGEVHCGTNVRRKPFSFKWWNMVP

IC50 | Compound
0.251 µM | COc1cc(C(=O)N2CC[C@@H](OC)[C@@H](N)C2)cc2nc(-c3cc4ccc5nc4n3CCCCC[C@@H]3C[C@@]3(C(F)(F)F)C(=O)N[C@@H]5C)n(C)c12 [Example 634, (2~{R},5~{S},7~{R})-14-[5-[(3~{S},4~{R})-3-amino-4-methoxy-piperidine-1-carbonyl]-7-methoxy-1-methyl-benzimidazol-2-yl]-2-methyl-5-(trifluoromethyl)-3,13,19-triazatetracyclo[11.5.2.0^ {5,7}.0^{16,20}] icosa-1(19),14,16(20), 17-tetraen-4-one]
0.062 µM | COc1cc(C(=O)N2[C@H]3CC[C@@H]2[C@H](N)C3)cc2nc(-c3cc4ccc5nc4n3CCCCCCC(C)(C)C(=O)N[C@@H]5C)n(C)c12 [Example 20, (11~{R})-17-[5-[(1~{R},2~{R},4~{S})-2-amino-7-azabicyclo[2.2.1]heptane-7-carbonyl]-7-methoxy-1-methyl-benzimidazol-2-yl]-8,8,11-trimethyl-1,10,19-triazatricyclo[10.5.2.0^{15,18}]nonadeca-12(19),13,15(18),16-tetraen-9-one]
0.046 µM | COc1cc(C(=O)N2CC3(CCCCNC3)C2)cc2nc(-c3cc4ccc5nc4n3CC(F)(F)CCC[C@@H]3C[C@H]3C(=O)N[C@@H]5C)n(C)c12 [Example 632, (2~{R},5~{R},7~{R})-14-[5-(2,9-diazaspiro[3.6]decane-2-carbonyl)-7-methoxy-1-methyl-benzimidazol-2-yl]-11,11-difluoro-2-methyl-3,13,19-triazatetracyclo [11.5.2.0^{5,7}.0^{16,20}] icosa-1(19),14,16(20), 17-tetraen-4-one]
0.03 µM | COc1cc(C(=O)N2[C@H]3CC[C@@H]2[C@H](N)C3)cc2nc(-c3cc4ccc5nc4n3C[C@@H]3C[C@H]3COCC(=O)N[C@@H]5C)c(C)n12 [Example 326, (3~{R},5~{R},11~{R})-17-[7-[(1~{R},2~{R},4~{S})-2-amino-7-azabicyclo[2.2.1]heptane-7-carbonyl]-5-methoxy-3-methyl-imidazo[1,2-a]pyridin-2-yl]-11-methyl-7-oxa-1,10,19-triazatetracyclo[10.5.2.0^{3,5}.0^{15,18}] nonadeca-12(19),13,15(18),16-tetraen-9-one]
0.031 µM | C[C@H]1NC(=O)[C@@H]2C[C@H]2CCCC(F)(F)Cn2c(-c3nc4cc(C(=O)N5C[C@H](N)[C@@H]6CC[C@H]5C6)cc(F)c4n3[C@@H]3C[C@@H]3C(F)F)cc3ccc1nc32 [Example 756, (2~{R},5~{R},7~{R})-14-[5-[(1~{S},4~{R},5~{R})-4-amino-2-azabicyclo[3.2.1]octane-2-carbonyl]-1-[(1~{R},2~{S})-2-(difluoromethyl)cyclopropyl]-7-fluoro-benzimidazol-2-yl]-11,11-difluoro-2-methyl-3,13,19-triazatetracyclo [11.5.2.0^{5,7}.0^{16,20}] icosa-1(19),14,16(20),17-tetraen-4-one]
0.049 µM | COc1cc(C(=O)N2C[C@H](N)[C@@H]3CC[C@H]2C3)cc2nc(-c3cc4ccc5nc4n3CCCCCc3cc(F)c(F)cc3C(=O)N[C@@H]5C)n(C)c12 [Example 927, (2~{R})-17-[5-[(1~{S},4~{R}, 5~{R})-4-amino-2-azabicyclo [3.2.1]octane-2-carbonyl]-7-methoxy-1-methyl-benzimidazol-2-yl]-7,8-difluoro-2-methyl-3,16,22-triazatetracyclo[14.5.2.0^ {5,10}.0^{19,23}]tricosa-1(22),5(10),6,8,17,19(23),20-heptaen-4-one]
0.025 µM | C[C@H]1NC(=O)[C@@H]2C[C@H]2CCCC(F)(F)Cn2c(-c3nc4cc(C(=O)N5C[C@H](N)[C@@H]6CC[C@H]5C6)cc(F)c4n3C3CC3)cc3ccc1nc32 [Example 438, (2~{R},5~{R},7~{R})-14-[5-[(1~{S},4~{R},5~{R})-4-amino-2-azabicyclo[3.2.1]octane-2-carbonyl]-1-cyclopropyl-7-fluoro-benzimidazol-2-yl]-11,11-difluoro-2-methyl-3,13,19-triazatetracyclo[11.5.2.0^{5,7}.0^{16,20}] icosa-1(19),14,16(20),17-tetraen-4-one]
0.047 µM | COc1cc(C(=O)N2C[C@H](N)[C@@H]3CC[C@H]2C3)cc2nc(-c3cc4ccc5nc4n3CCCCC[C@@]3(F)C[C@]3(C)C(=O)N[C@@H]5C)n(C)c12 [Example 915, (2~{R},5~{R},7~{R})-14-[5-[(1~{S},4~{R},5~{R})-4-amino-2-azabicyclo[3.2.1]octane-2-carbonyl]-7-methoxy-1-methyl-benzimidazol-2-yl]-7-fluoro-2,5-dimethyl-3,13,19-triazatetracyclo[11.5.2.0^ {5,7}.0^{16,20}]icosa-1(19),14,16(20),17-tetraen-4-one]
0.07 µM | C[C@H]1NC(=O)c2ccc(Cl)nc2CCCCCn2c(-c3nc4cc(C(=O)N5C[C@H](N)[C@@H]6CC[C@H]5C6)cc(OC(F)F)c4n3C3CC3)cc3ccc1nc32 [Example 760, (2~{R})-17-[5-[(1~{S},4~{R}, 5~{R})-4-amino-2-azabicyclo [3.2.1]octane-2-carbonyl]-1-cyclopropyl-7-(difluoromethoxy)benzimidazol-2-yl]-8-chloro-2-methyl-3,9,16,22-tetrazatetracyclo [14.5.2.0^{5,10}.0^{19,23}] tricosa-1(22),5(10), 6,8,17,19(23),20-heptaen-4-one]

Second part, the compound before the results:

Compound | IC50
Cc1cc2c(cc1C(=O)N[C@H]1CNCC[C@@H]1F)nc(-c1cc3ccc4nc3n1CCCCCCC(C)(C)C(=O)N[C@@H]4C)n2C [Example 537, ~{N}-[(3~{S},4~ {S})-4-fluoro-3-piperidyl]-1,6-dimethyl-2-[(11~{R})-8,8,11-trimethyl-9-oxo-1,10,19-triazatricyclo [10.5.2.0^{15,18}]nonadeca-12(19),13,15(18), 16-tetraen-17-yl]benzimidazole-5-carboxamide] | 0.087 µM
COc1cc(C(=O)N[C@H]2CNCCC2(F)F)cc2nc(-c3cc4ccc5cc4n3CCCCCCC(C)(C)C(=O)N[C@@H]5C)n(C)c12 [Example 191, ~{N}-[(3~{S})-4,4-difluoro-3-piperidyl]-7-methoxy-1-methyl-2-[(11~{R})-8,8,11-trimethyl-9-oxo-1,10-diazatricyclo[10.5.2.0^{15,18}]nonadeca-12(19),13,15(18),16-tetraen-17-yl]benzimidazole-5-carboxamide] | 0.14 µM
COc1cc(C(=O)N[C@H]2CNC[C@@H]2F)cc2nc(-c3cc4ccc5nc4n3CCCCCCC(C)(C)C(=O)N[C@@H]5C)n(C)c12 [Example 197, ~{N}-[(3~{S},4~{S})-4-fluoropyrrolidin-3-yl]-7-methoxy-1-methyl-2-[(11~{R})-8,8,11-trimethyl-9-oxo-1,10,19-triazatricyclo[10.5.2.0^{15,18}]nonadeca-12(19),13,15(18),16-tetraen-17-yl]benzimidazole-5-carboxamide] | 6.49 µM
COc1cc(C(=O)N2CC[C@@H](CO)[C@@H](N)C2)cc2nc(-c3cc4ccc5nc4n3CCCCCCC(C)(C)C(=O)N[C@@H]5C)n(C)c12 [Example 533, (11~{R})-17-[5-[(3~ {R},4~{R})-3-amino-4-(hydroxymethyl)piperidine-1-carbonyl]-7-methoxy-1-methyl-benzimidazol-2-yl]-8,8,11-trimethyl-1,10,19-triazatricyclo [10.5.2.0^{15,18}]nonadeca-12(19),13,15(18),16-tetraen-9-one] | 0.398 µM
COc1cc(C(=O)N2C[C@H]3CC[C@@H]2[C@@H]3N)cc2nc(-c3cc4ccc5cc4n3CCCCCCC(C)(C)C(=O)N[C@@H]5C)n(C)c12 [Example 749, (11~{R})-17-[5-[(1~{R},4~ {R},7~{R})-7-amino-2-azabicyclo[2.2.1]heptane-2-carbonyl]-7-methoxy-1-methyl-benzimidazol-2-yl]-8,8,11-trimethyl-1,10-diazatricyclo[10.5.2.0^{15,18}] nonadeca-12(19), 13,15(18),16-tetraen-9-one] | 0.017 µM
COc1cc(C(=O)N2[C@H]3CC[C@@H]2[C@H](N)C3)cc2nc(-c3cc4ccc5cc4n3CCCCCCC(=O)Nc3ncccc3-5)n(C)c12 [Example 88, 17-[5-[(1˜{R},2˜{R},4˜{S})-2-amino-7-azabicyclo[2.2.1]heptane-7-carbonyl]-7-methoxy-1-methyl-benzimidazol-2-yl]-6,8,16-triazatetracyclo[14.5.2.0^{2,7}.0^{19,23}]tricosa-1(22),2,4,6,17,19(23),20-heptaen-9-one] | 0.097 µM
COc1cc(C(=O)N2CCC[C@@H](N)[C@H]2C)cc2nc(-c3cc4ccc5nc4n3CCCCCc3cncc(F)c3C(=O)N[C@@H]5C)n(C)c12 [Example 657, (2~{R})-17-[5-[(2~{R},3~{R})-3-amino-2-methyl-piperidine-1-carbonyl]-7-methoxy-1-methyl-benzimidazol-2-yl]-6-fluoro-2-methyl-3,8,16,22-tetrazatetracyclo [14.5.2.0^{5,10}.0^{19,23}] tricosa-1(22),5,7,9,17,19(23), 20-heptaen-4-one] | 0.014 µM
COc1cc(C(=O)N2[C@H]3CC[C@@H]2[C@H](N)C3)cc2nc(-c3cc4ccc5nc4n3CCCCCC(=O)N[C@@H]5C)c(C)n12 [Example 320, (9~{R})-15-[7-[(1~{R},2~{R},4~{S})-2-amino-7-azabicyclo[2.2.1]heptane-7-carbonyl]-5-methoxy-3-methyl-imidazo[1,2-a]pyridin-2-yl]-9-methyl-1,8,17-triazatricyclo[8.5.2.0^{13,16}]heptadeca-10(17),11,13(16),14-tetraen-7-one] | 0.017 µM
COc1cc(C(=O)N2CCC[C@@H](N)C2)cc2nc(-c3cc4ccc5nc4n3CCCCCCC3(CCC3)C(=O)N[C@@H]5C)n(C)c12 [Example 263, (11~{R})-17-[5-[(3~{R})-3-aminopiperidine-1-carbonyl]-7-methoxy-1-methyl-benzimidazol-2-yl]-11-methyl-spiro[1,10,19-triazatricyclo[10.5.2.0^{15,18}]nonadeca-12(19),13,15(18),16-tetraene-8,1′-cyclobutane]-9-one] | 0.069 µM
